The target in one assay is human FPR2 (Homo sapiens (Human), UniProt P25090). Put plainly: FPR2 cyclic adenosine monophosphate (cAMP) assay. In kind it is cell-based. As to conditions: CHO cells overexpressing human FPR2; forskolin 5 µM; inhibition of cAMP production; read-out: hFPR2 cAMP2 EC50. The procedure, abridged:
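Inhibition of forskolin-driven (5 µM) cAMP, with 200 µM IBMX, measured in human FPR2-expressing CHO cells, 2,000 per well, 30 min at room temperature; compounds tested 0.020 nM to 100 µM in 1% DMSO. HTRF 665/590 ratio converted to cAMP via calibration curve, then 4-parameter fit.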
In general terms: Cyclic AMP is a second messenger, typically raised through Gs and lowered through Gi signalling.

The target of a further assay is human FPR1 (Homo sapiens (Human), UniProt P21462). The experiment in a line: FPR1 cyclic adenosine monophosphate (cAMP) assay. In kind it is cell-based. As to conditions: CHO cells overexpressing human FPR1; forskolin 10 µM; inhibition of cAMP production; read-out: hFPR1 cAMP EC50. The procedure, abridged: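 Human FPR1-expressing CHO cells were used at 4,000 per well, with compound at 0.020 nM–100 µM in 1% DMSO. Potency came from a 4-parameter logistic fit.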
human FPR1, sequence (P21462 whole entry): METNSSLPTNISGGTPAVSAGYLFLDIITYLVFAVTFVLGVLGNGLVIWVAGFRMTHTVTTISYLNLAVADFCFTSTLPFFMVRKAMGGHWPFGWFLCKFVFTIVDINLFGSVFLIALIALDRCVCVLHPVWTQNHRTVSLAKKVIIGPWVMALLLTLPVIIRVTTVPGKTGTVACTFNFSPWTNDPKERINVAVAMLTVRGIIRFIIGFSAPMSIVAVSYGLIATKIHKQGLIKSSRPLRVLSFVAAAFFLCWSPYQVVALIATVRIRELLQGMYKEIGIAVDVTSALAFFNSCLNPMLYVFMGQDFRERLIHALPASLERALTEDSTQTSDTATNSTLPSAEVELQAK

Each structure is given as a SMILES string. Where only a bound is given, the exact number is not on record here.

human FPR2, sequence (P25090 whole entry): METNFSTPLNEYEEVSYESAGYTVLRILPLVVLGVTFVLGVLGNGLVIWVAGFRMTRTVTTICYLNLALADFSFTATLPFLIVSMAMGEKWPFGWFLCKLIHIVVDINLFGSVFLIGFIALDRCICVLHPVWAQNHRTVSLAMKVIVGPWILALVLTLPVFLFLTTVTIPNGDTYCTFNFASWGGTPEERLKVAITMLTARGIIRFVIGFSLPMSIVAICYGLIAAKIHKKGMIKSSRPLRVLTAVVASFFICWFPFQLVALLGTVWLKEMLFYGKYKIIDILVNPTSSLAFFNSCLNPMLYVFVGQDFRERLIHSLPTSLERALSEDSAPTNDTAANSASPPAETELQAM

The EC50 is the concentration that produces a half-maximal response. Regarding `COc1cc(F)c([C@@H]2CN(c3cncn(C4CCN(C)C4)c3=O)C(=O)[C@H]2NC(=O)c2ccc(Cl)cc2)c(F)c1` (stereo partly shown) [Example 713], the results for the EC50 at human FPR2 and at human FPR1 were 4 nM and over 5000 nM, respectively.
Regarding `COc1cc(F)c([C@@H]2CN(c3cncn(C4CCNC4)c3=O)C(=O)[C@H]2NC(=O)c2ccc(Cl)cc2)c(F)c1` (stereo partly shown) [Example 714], the EC50 is 6.4 nM at human FPR2 and 3600 nM on human FPR1.
For `COc1cc(F)c([C@@H]2CN(c3cc(C)cc(C4CCN(CCO)CC4)n3)C(=O)[C@H]2NC(=O)c2ccc(OC(F)F)cc2)c(F)c1` [Example 715], the concentration for a half-maximal effect (EC50) was 5.5 nM at human FPR2 and over 5000 nM on human FPR1.
Consider `COc1cc(F)c([C@@H]2CN(c3cc(C)cc(C4CCNCC4)n3)C(=O)[C@H]2NC(=O)c2ccc(OC(F)F)cc2)c(F)c1` [Example 716], for which the EC50 at human FPR2 was 5.7 nM; at human FPR1 it was over 5000 nM.
Taken in the same sequence, the figures for `COc1cc(F)c([C@@H]2CN(c3cccc(C4CCCNC4)n3)C(=O)[C@H]2NC(=O)c2ccc(OC(F)F)cc2)c(F)c1` (stereo partly shown) [Example 718] were 0.9 nM and 840 nM.
For the compound `COc1cc(F)c([C@@H]2CN(c3cccc(C4CCCNC4)n3)C(=O)[C@H]2NC(=O)c2ccc(OC(F)F)cc2)c(F)c1` (stereo partly shown) [Example 719], the EC50 on human FPR2 was determined as 1.4 nM; at human FPR1 it was 1900 nM.
`COc1cc(C2CCN(CC(C)(C)O)CC2)nc(N2C[C@@H](c3c(F)cc(OC)cc3F)[C@H](NC(=O)c3ccc(OC(F)F)cc3)C2=O)c1` [Example 720]: the EC50 at human FPR2 is 3.9 nM; on human FPR1, over 5000 nM.
For the compound `COc1cc(F)c([C@@H]2CN(c3cncn(C4CCN(C)C4)c3=O)C(=O)[C@H]2NC(=O)c2ccc(Cl)cc2)c(F)c1` (stereo partly shown) [Example 721], the EC50 on human FPR2 was 5.6 nM; at human FPR1, over 5000 nM.
